Here are results for 5 compounds from patent publication US12239641B2, “Methods of treating or preventing fibrosis in non-alcoholic fatty liver disease” (priority 2018, dated 2025).

Structures are written as SMILES. Entries after “also recorded” stand apart in the source; their conditions may differ.

For data set [1], the system named is Primary human hepatic stellate cells. The data set is described as follows: 3D collagen gel contraction of hepatic stellate cells. In kind it is cell-based. To be noted: 6 hours. From the text: Primary human HSCs (huHSC) were isolated from wedge sections of liver tissue obtained from patients with no history of liver disease undergoing liver resection for colorectal metastasis in the Royal Free Hospital, with local Tissue act for patient benefit ethics approval. All the participants provided written informed consent in accordance with the Helsinki Declaration.
Cells isolation in brief: 10 g of total human liver tissue was digested with 0.01% Collagenase, 0.05% Pronase and 0.001% DNase I without performing perfusion. The homogenate was filtered through a 100 µm cell strainer (BD Biosciences) and the flow-through was centrifuged at 50×g for 2 minutes at 4° C. After washing the supernatant, gradient centrifugation was performed at 1400×g for 17 minutes at 4° C. using an 11.5% Optiprep gradient (Sigma-Aldrich Company Ltd.). Finally, the interface was collected and washed. […]
Human and rat HSCs were cultured within 3D collagen gels (Fibroblast-populated collagen lattices; FPCL). […] Gel areas were measured using ImageJ v1.49 software (US National Institutes of Health, Bethesda MD, USA, http://imagej.nih.gov/ij/).

The conditions of data set [2]: compared with Yohimbine; cited from earlier work.
The test system of data set [3] is ADRA2A receptors. To be noted: HFHC+YoHCl vs HFHC.
Description: Sprague Dawley rats (240-300 g) were randomly divided into 3 groups (Standard diet, HFHC+placebo, HFHC+Yohimbine). The animals were kept under controlled temperature (20±2° C.) and light (lights on at 08:00-20:00). The standard diet was composed of the following energy sources: 67 g carbohydrates (70 kcal %), 4 g fat (10 kcal %), and 19 g protein (20 kcal %) per 100 g diet. The HFC diet contained 19 g carbohydrates (15 kcal %), 39 g fat (65 kcal %), 2 g cholesterol, and 27 g protein (20 kcal %) per 100 g diet. The study was performed in accordance with local and national guidelines for animal welfare and approved by the institutional Animal Ethics Committee.
Animals were studied after 16 weeks of feeding. Animals in the HFHC group were randomised after 8 weeks of feeding to either treatment with placebo or Yohimbine, in addition to their ongoing diets. Yohimbine Hydrochloride (Product Number Y3125, Sigma-Aldrich, Dorset, UK), an ADRA2A antagonist, was administered in the drinking water at a dosage of 0.4 mg/kg rat/day. In the placebo treated group, an equivalent volume of water was administered. The rats were weighed daily and the Yohimbine treatment weight adjusted.
At the end of 16 weeks of feeding, rats were exsanguinated and the blood and tissues harvested and stored at −80 C for subsequent analyses. […]
The target of data set [4] is T1, ADRA2a (Homo sapiens, UniProt P08913).
T1 sequence (P08913 1-465): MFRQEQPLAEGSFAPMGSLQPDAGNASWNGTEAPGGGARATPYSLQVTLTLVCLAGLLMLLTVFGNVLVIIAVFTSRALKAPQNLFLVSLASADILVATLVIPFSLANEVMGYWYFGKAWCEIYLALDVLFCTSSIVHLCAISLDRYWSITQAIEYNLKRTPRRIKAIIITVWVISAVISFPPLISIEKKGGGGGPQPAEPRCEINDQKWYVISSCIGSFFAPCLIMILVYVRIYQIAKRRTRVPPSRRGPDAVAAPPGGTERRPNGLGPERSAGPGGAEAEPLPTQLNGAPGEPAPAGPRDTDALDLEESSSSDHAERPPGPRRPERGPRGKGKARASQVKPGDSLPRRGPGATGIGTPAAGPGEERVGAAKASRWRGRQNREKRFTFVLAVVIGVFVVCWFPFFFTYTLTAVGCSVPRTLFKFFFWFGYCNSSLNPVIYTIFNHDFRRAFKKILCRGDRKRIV
Particulars: some affinity for all; cited from earlier work.

Data set [5] concerns working memory. The data set is described as follows: Working memory test in HFHC NASH rats. The class given is in vivo, Sprague Dawley rats. Particulars: HFHC diet 16 weeks, Yohimbine for the last 8 weeks vs placebo. From the text: (§1) Animals were studied after 16 weeks of feeding.
Working memory and behavioural testing was through standard psychometric assessments before termination, such as application of the Barnes Maze.

For data set [6], the system named is cytokines and chemokines (Cx3CL1, CxCL5, CCL3). The data set is described as follows: Cytokines and chemokines (ELISA) in HFHC NASH rats. In kind it is in vivo, Sprague Dawley rats.
Excerpt: as §1

Data set [7] deals with Genes involved in fibrogenesis (TIMP-1 and Collal), MMP2. The data set is described as follows: Expression of genes involved in fibrogenesis in HFHC NASH rats. The class given is in vivo, Sprague Dawley rats.
Excerpt: as §1

Data set [8] relates to rat model of NASH induced by a high fat high cholesterol (HFHC) diet. The data set is described as follows: Rat model of NASH induced by HFHC diet: liver weight, fat, AST, histology scores, fibrosis. The class given is in vivo, Sprague Dawley rats.
Excerpt: as §1

In data set [9] the test system is noradrenaline (Norepinephrine—NE). The data set is described as follows: Noradrenaline levels (HPLC) in HFHC NASH rats. The class given is in vivo, Sprague Dawley rats. Particulars: HFHC+YoHCl vs HFHC.
Excerpt: as §1

The mark [10] stands for this setting: HFHC model, Yohimbine therapy for 8 weeks, p=0.03.
[11] abbreviates: H&E liver, HFHC+YoHCl (n=9) vs HFHC (n=6), 8 weeks treatment.

As for `N=C(N)NC(=O)Cc1c(Cl)cccc1Cl` [Guanfacine], the “contraction in a 3D collagen gel” value in data set [1] (5 uM Guanfacine vs serum free medium) was “significantly greater contraction”.

Consider `CC1c2ccccc2CN1CC1=NCCN1` (stereo not shown) [BRL44408], for which the “contraction in a 3D collagen gel” value in data set [1] (5 uM Guanfacine and 5 uM BRL44408 vs guanfacine alone) was “less contraction”.

As to `COC(=O)[C@@H]1[C@H]2C[C@H]3c4[nH]c5cc(O)ccc5c4CCN3C[C@@H]2CC[C@@H]1O` [11-OH Yohimbine], in data set [2], the half life entry is listed as “longer half life” and the oral bioavailability entry is “better oral bioavailability”.

For `COC(=O)[C@@H]1[C@H]2C[C@H]3c4[nH]c5ccccc5c4CCN3C[C@@H]2CC[C@@H]1O` [Yohimbine], the “ADRA2A receptor expression in liver tissue” value in data set [3] is reported as “does not significantly reduce”. The “selectivity among ADRA2 subtypes” value in data set [4] is on record as “most selective for ADRA2a”. For the same compound, the working memory entry in data set [5] is listed as “significantly improved; also recorded: improves”. In data set [6] (HFHC+YoHCl (8 weeks) vs HFHC), the CCL3 protein expression entry is “decrease markedly”, the Cx3CL1 protein expression entry is listed as “decrease markedly” and the CxCL5 protein expression entry is “decrease markedly”. The “cytokines and chemokines (liver and systemic inflammation)” value in data set [6] (HFHCD_YoHCl vs HFHCD, 16 weeks diet) is “reduced liver and systemic inflammation”. Further, in [7] (setting [10]), the Collal gene expression entry was “significantly (p=0.03 for both) reduced” and the TIMP-1 gene expression result is reported as “significantly (p=0.03 for both) reduced”. Further, the MMP2 expression result in data set [7] (HFHC rats, Yohimbine hydrochloride therapy) was “reduced”. Moreover, in data set [8] (setting [11]), the hepatic inflammation score entry is listed as “significant reduction”, the hepatic steatosis score result was “significant reduction”, the hepatocyte ballooning score entry is “significant reduction” and the “non-alcoholic fatty liver disease (NAFLD) activity score (NAS)” value is “significant reduction”. The “fibrosis (Picro sirius red stained liver)” value in data set [8] (HFHC NASH rats with Yohimbine vs without treatment) is “visually decreased”. In addition, the “Collagen proportionate area (CPA)” value in [8] (HFHC NASH rats with Yohimbine vs without treatment, n=6 per group, HFHCD vs HFHCD_YoHCl p=0.016) was “reduced”. In addition, the liver fat result in data set [8] (HFHC diet 16 wks, Yohimbine for last 8 weeks) is “reduced”. Besides, the Liver-body weight ratio entry in [8] (HFHC diet 16 wks, Yohimbine for last 8 weeks, 0.4 mg/kg rat/day in drinking water, HFHCD vs HFHCD_YoHCl p=0.014) is given as “restored”. Further, the “AST (liver injury)” value in data set [8] (HFHC rats after 8 weeks of Yohimbine therapy, HFHCD vs HFHCD_YoHCl p=0.007) is listed as “decreased”. For the same compound, the “Levels of noradrenaline (NE)” value in data set [9] is reported as “further but non-statistical increase”.

Take `COC(=O)[C@H]1[C@H]2C[C@H]3c4[nH]c5ccccc5c4CCN3C[C@H]2CC[C@@H]1O` [Rauwolscine]: the “selectivity among ADRA2 subtypes” value in [4] is “most selective for ADRA2a”.
